{"source": "patent US10391080B2", "about": "“Ketorolac for the treatment of cancer” (Cipla Limited, priority 2016, dated 2019)", "experiment_in_all_cases": "In vitro 3D assay, clonogenic assay (colony formation in semi-solid medium)", "assay_type_in_all_cases": "cell-based", "key": {"786-O": {"test_system": "786-O", "conditions": "Homo sapiens, 786-0, 3D colony formation, continuous exposure 8 to 13 days", "method": "(§1) Ketorolac was characterized for its ability to inhibit anchorage independent growth and ex vivo colony formation of tumor cells in semi-solid medium. The compound was tested against 10 human tumor xenograft-derived cell suspensions or tumor cell lines of renal cancer.\n(§2) Cell lines were routinely passaged one or twice weekly. […] The percentage of viable cells was determined in a Neubauer-hemocytometer using trypan blue exclusion.\n(§3) Tumor xenografts (patient-derived, as well as cell line-derived xenografts) were passaged as subcutaneous xenografts in NMRI nu/nu mice. At a tumor volume of 400-1000 mm^3 tumor-bearing mice were sacrificed and tumors were collected under sterile conditions without delay according to the relevant Oncotest SOPs and the relevant animal welfare guidelines published by the FELASA and the GV-SOLAS. […] The percentage of viable cells was determined in a Neubauer-hemocytometer using trypan blue exclusion. Aliquots of the cells were frozen down, and stored in liquid nitrogen. On each day of an experiment, a frozen aliquot of tumor cells was thawed and used for preparation of assay plates.\n(§4) The clonogenic assay was carried out in a 96 well plate format using ultra low attachment plates. […] Every plate included six untreated control wells and drug-treated groups in duplicate at 9 concentrations. […] At the time of maximum colony formation, counts were performed with an automatic image analysis system (Celllnsight NXT, Thermo Scientific). 48 hours prior to evaluation, vital colonies were stained with a sterile aqueous solution of 2-(4-iodophenyl)-3-(4-nitrophenyl)-5-phenyltetrazolium chloride (1 mg/ml, 100 μl/well)."}, "SN12C": {"test_system": "SN12C", "conditions": "Homo sapiens, 3D colony formation, continuous exposure 8 to 13 days", "method": "as §1, §2, §3, §4"}, "RXF 393L": {"test_system": "RXF 393L", "conditions": "Homo sapiens, 3D colony formation, continuous exposure 8 to 13 days", "method": "as §1, §2, §3, §4"}, "RXF 1183L": {"test_system": "RXF 1183L", "conditions": "Homo sapiens, 3D colony formation, continuous exposure 8 to 13 days", "method": "as §1, §2, §3, §4"}, "RXF 1220L": {"test_system": "RXF 1220L", "conditions": "Homo sapiens, 3D colony formation, continuous exposure 8 to 13 days", "method": "as §1, §2, §3, §4"}, "RXF 1781L": {"test_system": "RXF 1781L", "conditions": "Homo sapiens, 3D colony formation, continuous exposure 8 to 13 days", "method": "as §1, §2, §3, §4"}, "ACHN": {"test_system": "ACHN", "conditions": "Homo sapiens, 3D colony formation, continuous exposure 8 to 13 days", "method": "as §1, §2, §3, §4"}, "Caki-1": {"test_system": "Caki-1", "conditions": "Homo sapiens, Caki-1, 3D colony formation, continuous exposure 8 to 13 days", "method": "as §1, §2, §3, §4"}, "A-498 cells": {"test_system": "A-498 cells", "conditions": "Homo sapiens, A498, A-498, 3D colony formation, continuous exposure 8 to 13 days", "method": "as §1, §2, §3, §4"}, "RXF 486L": {"test_system": "RXF 486L", "conditions": "Homo sapiens, 3D colony formation, continuous exposure 8 to 13 days", "method": "as §1, §2, §3, §4"}}, "note": "Read-outs that look alike come from different tables or passages of the source."}
{"molecule": "O=C(c1ccccc1)c1ccc2n1CCC2C(=O)O", "note": "(racemic) [Ketorolac, (±)-5-benzoyl-2,3-dihydro-1H-pyrrolizine-1-carboxylic acid]", "values": [{"measurement": "IC50", "setting": "786-O; read-out: Absolute IC50", "value": 3.84, "unit": "mM"}, {"measurement": "IC50", "setting": "786-O; read-out: Relative IC50", "value": 4.2, "unit": "mM"}, {"measurement": "IC50", "setting": "SN12C; read-out: Absolute IC50", "value": 2.59, "unit": "mM"}, {"measurement": "IC50", "setting": "SN12C; read-out: Relative IC50", "value": 2.64, "unit": "mM"}, {"measurement": "IC50", "setting": "RXF 393L; read-out: Absolute IC50", "value": 2.83, "unit": "mM"}, {"measurement": "IC50", "setting": "RXF 393L; read-out: Relative IC50", "value": 2.73, "unit": "mM"}, {"measurement": "IC50", "setting": "RXF 1183L; read-out: Absolute IC50", "value": 1.55, "unit": "mM"}, {"measurement": "IC50", "setting": "RXF 1183L; read-out: Relative IC50", "value": 1.49, "unit": "mM"}, {"measurement": "IC50", "setting": "RXF 1220L; read-out: Absolute IC50", "value": 1.77, "unit": "mM"}, {"measurement": "IC50", "setting": "RXF 1220L; read-out: Relative IC50", "value": 1.75, "unit": "mM"}, {"measurement": "IC50", "setting": "RXF 1781L; read-out: Absolute IC50", "value": 1.9, "unit": "mM"}, {"measurement": "IC50", "setting": "RXF 1781L; read-out: Relative IC50", "value": 2.03, "unit": "mM"}, {"measurement": "IC50", "setting": "ACHN; read-out: Absolute IC50", "value": 3.14, "unit": "mM"}, {"measurement": "IC50", "setting": "ACHN; read-out: Relative IC50", "value": 3.25, "unit": "mM"}, {"measurement": "IC50", "setting": "Caki-1; read-out: Absolute IC50", "value": 3.68, "unit": "mM"}, {"measurement": "IC50", "setting": "Caki-1; read-out: Relative IC50", "value": 3.75, "unit": "mM"}, {"measurement": "IC50", "setting": "A-498 cells; read-out: Absolute IC50", "value": 0.279, "unit": "mM"}, {"measurement": "IC50", "setting": "A-498 cells; read-out: Relative IC50", "value": 0.279, "unit": "mM"}, {"measurement": "IC50", "setting": "RXF 486L; read-out: Absolute IC50", "value": 2.68, "unit": "mM"}, {"measurement": "IC50", "setting": "RXF 486L; read-out: Relative IC50", "value": 2.61, "unit": "mM"}]}
